From patent publication US10667512B2, “Terpene-containing compositions and methods of making and using them” (Eden Research PLC, priority 2005, dated 2020)
Like-named read-outs stand apart in the source and are kept apart here.

Legend:
S. aureus = experiment: MIC of terpene emulsions and fresh or freeze-dried Baker's YP / SAF Mannan encapsulated terpenes; format: cell-based; conditions: for MIC, Bakers Freeze Dried / MIC, Bakers Fresh: encapsulated in Baker's YP; for MIC, SAF Mannan Freeze Dried / MIC, SAF Mannan Fresh: encapsulated in SAF Mannan; for MIC, Emulsion: terpene emulsion
Experimental: The results of a protocol performed to compare the MIC of fresh versus freeze dried hollow glucan particle encapsulated terpene formulations are shown below in Table 13. A simple terpene emulsion was also tested and the results are shown for comparison.

[1] = Terpene loading into yeast particles, absence of free terpene after centrifugation; format: physicochemical; conditions: for Vol. loaded: 500 μl of 250 mg/ml; for % Loaded w/w: terpene to particle weight; for terpene emulsion absorbed and encapsulated per 10 mg of YP: Baker's YP 20 mg/ml; for terpene emulsion absorbed and encapsulated per 125 mg of YP: Baker's YP 250 mg/ml
Experimental: (§1) Samples were centrifuged at 14,000×g for 10 minutes and the appearance of free terpene floating on the aqueous layer was scored.
The expression “free terpene” refers to the visible presence of terpene in the centrifuged reaction mixture. The absence of free terpene indicates complete absorption of the terpene by the particles. The highest volume of terpene absorbed by the particles, as evidenced by the absence of free terpene, was recorded as the maximal volume of absorbed terpene emulsion.
as §1
The expression “free terpene” refers to the visible presence of terpene in the centrifuged reaction mixture. The absence of free terpene indicates complete absorption of the terpene by the YP. The highest volume of terpene absorbed by the YP, as evidenced by the absence of free terpene, was recorded as the maximal volume of absorbed terpene emulsion.
Increasing volumes of terpene emulsion were mixed with 250 mg/ml Baker's YP or 250 mg/ml SAF Mannan™ overnight at room temperature as shown in Tables 7 and 8. Samples were centrifuged at 14,000×g for 10 minutes and the appearance of free terpene floating on the aqueous layer was scored. The highest volume of terpene emulsion absorbed by Baker's YP or SAF Mannan™ as evidenced by the absence of free terpene was recorded as the volume of absorbed terpene emulsion. Colour of encapsulated terpenes in the pellet was recorded.
Percentage loaded represents a ratio of the amount of terpene loaded to the amount of particle present (weight for weight).

H. pylori = conditions: in vitro; cited from earlier work
[2] = Citral solution and stable suspension; format: physicochemical
Excerpt: In one embodiment the terpene component includes one or more terpenes which contain oxygen.

E. coli = conditions: cited from earlier work
[3] = format: physicochemical
Experimental: The reactions were incubated for 1, 3, 6, 9 and 24 hours at room temperature or 37° C. After incubation samples were centrifuged at 14,000×g for 10 minutes and the appearance of free terpene floating on the aqueous layer was scored. The highest volume of terpene absorbed by the particles as evidenced by the absence of free terpene was recorded as the volume of absorbed terpene emulsion. Colour of the encapsulated pellet was scored at 24 hours.

Compound: C=CCc1ccc(O)c(OC)c1 [Eugenol]
- MIC, Bakers Freeze Dried (S. aureus): 0.05 μg/ml terpene
- MIC, Bakers Fresh (S. aureus): 0.03 μg/ml terpene
- MIC, SAF Mannan Freeze Dried (S. aureus): 0.05 μg/ml terpene
- MIC, SAF Mannan Fresh (S. aureus): 0.01 μg/ml terpene
- MIC, Emulsion (S. aureus): 0.12 μg/ml terpene
- Vol. loaded ([1]; maximal loading in Baker's YP): 75 µL
- % Loaded w/w ([1]; maximal loading in Baker's YP): 67% w/w
- Vol. loaded ([1]; maximal loading in SAF Mannan): 112.5 µL
- % Loaded w/w ([1]; maximal loading in SAF Mannan): 100% w/w

Compound: CC(C)=CCC/C(C)=C/CO [Geraniol]
- concentration that inhibited the growth of H. pylori (H. pylori): 2 mg/L
- MIC, Bakers Freeze Dried (S. aureus): 0.06 μg/ml terpene
- MIC, Bakers Fresh (S. aureus): 0.03 μg/ml terpene
- MIC, SAF Mannan Freeze Dried (S. aureus): >0.03 μg/ml terpene
- MIC, SAF Mannan Fresh (S. aureus): 0.02 μg/ml terpene
- MIC, Emulsion (S. aureus): 0.47 μg/ml terpene
- Vol. loaded ([1]; maximal loading in Baker's YP): 75 µL
- % Loaded w/w ([1]; maximal loading in Baker's YP): 67% w/w
- Vol. loaded ([1]; maximal loading in SAF Mannan): 150 µL
- % Loaded w/w ([1]; maximal loading in SAF Mannan): 133% w/w

Compound: CC(C)=CCCC(C)=CC=O [Citral, 3,7-dimethyl-2,6-octadien-1-al]
- MIC, Bakers Freeze Dried (S. aureus): 0.05 μg/ml terpene
- MIC, Bakers Fresh (S. aureus): 0.01 μg/ml terpene
- MIC, SAF Mannan Freeze Dried (S. aureus): >0.03 μg/ml terpene
- MIC, SAF Mannan Fresh (S. aureus): 0.01 μg/ml terpene
- MIC, Emulsion (S. aureus): 0.94 μg/ml terpene
- concentration up to which a solution can be made [2]: up to 500 ppm
- concentration up to which a stable suspension can be formed [2]: up to 2500 ppm
- concentration in growth media that reduced the concentration of E. coli (E. coli): more than 0.01%
- concentration with bactericidal effect (E. coli): 0.08%
- terpene emulsion absorbed and encapsulated per 10 mg of YP [1]: at least 5 μl
- terpene emulsion absorbed and encapsulated per 125 mg of YP [1]: at least 75 μl
- Vol. loaded ([1]; maximal loading in Baker's YP): 75 µL
- % Loaded w/w ([1]; maximal loading in Baker's YP): 67% w/w
- Vol. loaded ([1]; maximal loading in SAF Mannan): 150 µL
- % Loaded w/w ([1]; maximal loading in SAF Mannan): 133% w/w
- protection of citral from oxidation ([3]; in Baker's YP): not by the Baker's YP
- protection of citral from oxidation ([3]; in SAF Mannan): protected from oxidation

Compound: L-carvone
- MIC, Bakers Freeze Dried (S. aureus): >0.04 μg/ml terpene
- MIC, Bakers Fresh (S. aureus): 0.1 μg/ml terpene
- MIC, SAF Mannan Freeze Dried (S. aureus): >0.02 μg/ml terpene
- MIC, SAF Mannan Fresh (S. aureus): 0.01 μg/ml terpene
- MIC, Emulsion (S. aureus): 3.75 μg/ml terpene
- terpene emulsion absorbed and encapsulated per 10 mg of YP [1]: at least 16.5 μl
- terpene emulsion absorbed and encapsulated per 125 mg of YP [1]: at least 112.5 μl
- Vol. loaded ([1]; maximal loading in Baker's YP): 37.5 µL
- % Loaded w/w ([1]; maximal loading in Baker's YP): 33.3 % w/w
- Vol. loaded ([1]; maximal loading in SAF Mannan): 112.5 µL
- % Loaded w/w ([1]; maximal loading in SAF Mannan): 100% w/w
